SMILES strings stand for the structures.

The test system of data set [1] is Human B Lymphocyte cell line, SU-DHL-8. As to the kind of experiment: Relative cell viability CCK-8, SU-DHL-8. In kind it is cell-based. The conditions noted are these: 48 hours, untreated (DMSO) = 100%; for viability at 1 µM / viability at 10 µM / viability at 30 µM / viability at 50 µM: Homo sapiens, SU-DHL-8, 48 h; for viability at 1 µM: read-out: Relative cell viability (%), SU-DHL-8, 1 μM; for viability at 10 µM: read-out: Relative cell viability (%), SU-DHL-8, 10 μM; for viability at 30 µM: read-out: Relative cell viability (%), SU-DHL-8, 30 μM; for viability at 50 µM: read-out: Relative cell viability (%), SU-DHL-8, 50 μM. How it is done:
Human-derived B lymphoma cell line SU-DHL-8 (Cat. #CRL-2961) purchased from ATCC was cultured in RPMI-1640 medium containing 10% FBS, 100 U/mL penicillin, and 100 μg/mL streptomycin.
The cell culture medium was then harvested, centrifuged at 1,300 rpm for 5 minutes, and the supernatant was removed. The cells were resuspended in the same medium and dispensed into a 96-well plate (Costar 96-well cell culture plate, Corning) at 90 μL per well, resulting in the conditions specified in Table 5.
Then, 10 μL of CCK-8 was added to each well, and the plates were incubated again at 37° C. in a 5% CO2 incubator for 4 hours.
In other words, when the survival rate of untreated cells (DMSO) is set at 100%, the relative cell survival rate in each group treated with the drug at different concentrations is indicated.

For data set [2], the system named is T cells isolated from mouse spleens. As to the kind of experiment: T cell proliferation inhibition (CFSE flow cytometry, anti-CD3/anti-CD28 stimulation). It counts as cell-based. The conditions noted are these: mouse spleen T cells, 3 days; for inhibition at 0.01 µM / inhibition at 0.1 µM / inhibition at 1 µM / inhibition at 10 µM / inhibition at 30 µM / inhibition at 50 µM: Mus musculus, T-cell, 72 h, read-out: Proliferation inhibition rate (%). The essentials:
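Proliferation inhibition (%) came from flow cytometry of CFSE dilution after 3 days' culture at 37 °C with compound (10 nM, 100 nM, 1, 10, 30, 50 μM; triplicate wells). Cells were magnetically purified T cells from C57BL/6 mouse spleens, 2×10^5 per well, stimulated with 0.5 μg/mL each anti-CD3 and anti-CD28.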

For the molecule `CC1CCCN(CCCCCCCCCCCCNC(=O)c2cccnc2N)CC1` (stereo not drawn) [Compound 39, 2-Amino-N-(12-(4-methylazepan-1-yl)dodecyl) nicotinamide], the “Relative cell viability (%), SU-DHL-8” value in data set [1] (1 μM) worked out at 11.48%; in data set [1] (10 μM), 8.41%; in data set [1] (30 μM), 6.24%; in data set [1] (50 μM) it was 4.27%. Moreover, the “Proliferation inhibition rate (%)” value is on record as −58.92% in data set [2] (compound 10 nM); 100.00% in data set [2] (compound 100 nM); 100.00% in data set [2] (compound 1 μM); 100.00% in data set [2] (compound 10 μM); 100.00% in data set [2] (compound 30 μM); 100.00% in data set [2] (compound 50 μM).

A word on the viability: it is a read-out of living cells in per cent, often relative to untreated cells. `COC(=O)CN1CCN(CCCCCCCCCCCCC(=O)Nc2nc(N)c3[nH]cnc3n2)CC1` [Compound 7, 12-[4-(2-methoxy-2-oxoethyl)piperazin-1-yl]dodecyl-N-(6-aminopurine-2-yl) carboxamide]: in data set [1], the viability at 1 µM was determined as 5.17%, the viability at 10 µM amounted to 4.16%, the viability at 30 µM was found to be 3.48% and the viability at 50 µM turned out to be 3.17%. Besides, in data set [2] (compound 10 nM), the inhibition at 0.01 µM was found to be 5.14%. In addition, in data set [2] (compound 100 nM), the inhibition at 0.1 µM was 100%. Also, in data set [2] (compound 1 μM), the inhibition at 1 µM is 100%. Also, in data set [2] (compound 10 μM), the inhibition at 10 µM was determined as 100%. Also, the inhibition at 30 µM in data set [2] (compound 30 μM) turned out to be 100%. Besides, in data set [2] (compound 50 μM), the inhibition at 50 µM was found to be 100%.

In the case of `Cc1ccc(C2CCN(CCCCCCCCCCCCNC(=O)c3cccnc3N)CC2)cc1` [Compound 55, 2-Amino-N-(12-(4-(p-tolyl)piperidin-1-yl)dodecyl) nicotinamide], the “Relative cell viability (%), SU-DHL-8” value in data set [1] (1 μM) came to 9.36%; in data set [1] (10 μM), 4.92%; in data set [1] (30 μM) it was 1.10%; in data set [1] (50 μM), 0.97%. Besides, the “Proliferation inhibition rate (%)” value was determined as 89.67% in data set [2] (compound 10 nM); 100.00% in data set [2] (compound 100 nM); 100.00% in data set [2] (compound 1 μM); 100.00% in data set [2] (compound 10 μM); 100.00% in data set [2] (compound 30 μM); 100.00% in data set [2] (compound 50 μM).

Turning to `CC(C)CN1CCN(CCCCCCCCCCCCC(=O)Nc2nc(N)c3[nH]cnc3n2)CC1` [Compound 6, 12-[4-(2-methylpropyl)piperazin-1-yl]dodecyl-N-(6-aminopurine-2-yl) carboxamide], in data set [1], the viability at 1 µM was 7.83%, the viability at 10 µM came out at 6.39%, the viability at 30 µM amounted to 4.66% and the viability at 50 µM was determined as 3.94%. Further, the inhibition at 0.01 µM in data set [2] (compound 10 nM) was -18.5%. In data set [2] (compound 100 nM), the inhibition at 0.1 µM is 100%. In addition, in data set [2] (compound 1 μM), the inhibition at 1 µM stood at 100%. The inhibition at 10 µM in data set [2] (compound 10 μM) turned out to be 100%. In data set [2] (compound 30 μM), the inhibition at 30 µM is 100%. Besides, the inhibition at 50 µM in data set [2] (compound 50 μM) came out at 100%.

Consider `Nc1ncccc1C(=O)NCCCCCCCCCCN1CCOCC1` [Compound 63, 2-Amino-N-(10-morpholin-4-yl-decyl)-nicotinamide], for which, in data set [1], the viability at 1 µM turned out to be 33%, the viability at 10 µM stood at 29.8%, the viability at 30 µM was 29.1% and the viability at 50 µM was determined as 27.9%. In addition, the inhibition at 0.01 µM in data set [2] (compound 10 nM) is -9.84%. Moreover, the inhibition at 0.1 µM in data set [2] (compound 100 nM) amounted to 4.85%. In addition, in data set [2] (compound 1 μM), the inhibition at 1 µM turned out to be 11.2%. The inhibition at 10 µM in data set [2] (compound 10 μM) worked out at 100%. In addition, the inhibition at 30 µM in data set [2] (compound 30 μM) stood at 100%. For the same molecule, in data set [2] (compound 50 μM), the inhibition at 50 µM turned out to be 100%.

For `Nc1ncccc1C(=O)NCCCCCCCCCCCCN1CCCCC1` [Compound 18, 2-amino-N-(12-(piperidin-1-yl)dodecyl)nicotinamide], in data set [1], the viability at 1 µM came out at 5.28%, the viability at 10 µM was determined as 4.5%, the viability at 30 µM turned out to be 4.09% and the viability at 50 µM is 3.44%. Besides, the inhibition at 0.01 µM in data set [2] (compound 10 nM) is 1.87%. Moreover, in data set [2] (compound 100 nM), the inhibition at 0.1 µM amounted to 76.1%. Further, in data set [2] (compound 1 μM), the inhibition at 1 µM is 100%. For the same molecule, the inhibition at 10 µM in data set [2] (compound 10 μM) is 100%. The inhibition at 30 µM in data set [2] (compound 30 μM) came to 100%. Moreover, in data set [2] (compound 50 μM), the inhibition at 50 µM amounted to 100%.

These data come from patent publication US20260183274A1, “PDK1 REGULATORY COMPOUND AND COMPOSITION CONTAINING THE SAME” (PROVIBIO CO., LTD., priority 2024, published 2026).
